Laboratory results reported in patent US20090214670A1, “Rhcc peptide and uses thereof” (Optovent AB, priority 2005, published 2009).

What was measured:
[1] = system: IL-6-dependent BAF/3 cell line; assay: biological activity on the IL-6-dependent BAF/3 cell line; assay type: cell-based
Text: The calculated molecular mass of RHCC-IL-6 monomer is 28.3 kDa. […] The corresponding value for the tetramer is […].

RHCC peptide = assay: NMR and UV-Vis absorption experiments on incorporation of metal ions in solution; assay type: binding, Staphylothermus marinus
Text: For the addition of electrons according to reaction (4), electrochemical or photoelectrochemical reduction (with e.g. [Ru(bpy)3]^2+) may be used, although the simple addition of a chemical reducing agent (e.g. NaBH4) is also possible.

RHCC [2] = assay: localisation by UV-Vis spectroscopy (solvatochromic effect); assay type: binding, Staphylothermus marinus; conditions: tris-buffer solution with RHCC compared with water, methanol, water/methanol 50/50; FIG. 1
Experimental: The location of a drug inside the cavities can be detected by techniques sensitive to the local microscopic environment of the molecule, e.g. the drug. For example the absorption of visible light (UV-Vis spectroscopy—solvatochromic effect) can be used to probe the local environment of e.g. […] (FIG. 1). The position of the absorption peak of […] is measured in water (FIG. 1—Plot A), in methanol (FIG. 1, Plot C), water/methanol (50/50) (FIG. 1—Plot B) and in a mixture with the peptide (FIG. 1—Plot E).

RHCC [3] = assay: filtering experiment: excess metal complex removed via size exclusion filters, absorption spectra; assay type: binding, Staphylothermus marinus; conditions: mixed with excess metal complex, stirred at least 1 hour, solvent replaced via size exclusion filters; FIG. 2 and 3
Experimental: After leaving the mixed solution stirred for at least 1 hour, the solvent containing RHCC, the metal complex and the buffer or any other supporting salt, the solvent together with any excess metal complex and salt is replaced via size exclusion filters by a solvent NOT containing any metal complex. The result of such an experiment is plotted in FIG. 2. […] In combination with the x-ray structures a location of HgI4^2− inside the cavities in solution can be concluded. […] According to the crystal structure, incorporation into the cavities of RHCC can be concluded for cisplatin.

Molecule: RHCC-IL-6 fusion molecule: fusion protein: histidine tag, human interleukin-6 sequence, GS linker, RHCC sequence; forms a tetramer
- biological activity on IL-6-dependent BAF/3 cell line [1]: full biological activity

Molecule: [Cl][Pt-2]([Cl])([Cl])[Cl] [[PtCl4]^−]
- incorporation of the metal ion into RHCC peptide in solution (RHCC peptide): incorporates the metal ion in solution

Molecule: [I][Hg-2]([I])([I])[I] [HgI4^2−]
- local environment of the complex when mixed with the peptide (absorption peak position) (RHCC [2]): resides in a hydrophobic environment
- interaction of metal complex with RHCC after filtering off excess complex (RHCC [3]): strong enough to prevent HgI4^2− from being filtered from the solution
- incorporation of the metal ion into RHCC peptide in solution (RHCC peptide): incorporates the metal ion in solution

Molecule: N.N.[Cl][Pt][Cl] [cisplatin]
- interaction of metal complex with RHCC after filtering off excess complex (RHCC [3]): strong interaction
